One series concerns Blattella germanica. In words: Mortality test on beetles, treated glass plates with chloropyriphos or propoxur. The format is in vivo. To be noted: 24 hours exposure; for Mortalità 1gg: 1 day from application; for Mortalità 3gg: 3 days from application. Here is the method:
Solutions of products of examples 1 and 3 in acetone and, for comparison, of piperonyl butoxide, with the organic phosphorus compound chloropyriphos and with carbamate compound propoxur, were applied from a distance of 12 cm on glass plates (model Ostra, 15×15 cm=225 square cm) by means of a suitable glass sprayer so as to obtain an applied amount of organic phosphorous compound equal to 33 mg/square m and of carbamate equal to 500 mg/mq. The products of examples 1 e 3 and the comparison compound PBO were in a weight ratio of 5:1 w/w with respect to the organic phosphorous compound and to the carbamate.
In the same way acetone solutions of organic phosphorous compound and of carbamate compound were prepared so as to obtain an applied amount of organic phosphorous compound equal to 33 mg/square m and of carbamate compound equal to 500 mg/mq. After the application the plates were transferred to a closed test room under controlled temperature and humidity (24-25° C., RH 50-60%). Glass rings (h 5.5 cm×diameter 9.5 cm), having internal surface treated with talc and each one containing 5 beetles—Blattella germanica—were placed in the centre of the plates. They were evaluated each one after 1 day and three days from the application. For each day, the insects were maintained on the surface for 24 hours.

Series [1] relates to adult, female insects of the Musca domestica species. The series can be described thus: whole plant or invertebrate. The format is in vivo. The note with it: for Mortality: compound 1.25% w/v + tetramethrin 0.25% w/v in acetone; for synergist activity in respect of the tetramethrin: summary of Table 1, comparison with PBO. Here is the method:
After having mixed the products of Examples 1-4 with tetramethrin in acetone respectively at a concentration of 1.25% for the products of examples 1-4 and of 0.25% for the tetramethrin, 0.5 μl of acetone solution was applied to adult, female insects of the Musca domestica species, on the rear part of the pectoral region. The insect was then transferred to a closed plastic container approximately 12 cm in diameter and 6 cm in height and left at 25° C. with supply of 5% sugar solution. After 24 hours the alive and dead flies were examined to determine the percentage mortality. The total number of flies per container was equal to 20 and the test was repeated three times. For comparison acetone solutions at the same concentrations as previously indicated for the compounds of examples 1-4 and for tetramethrin alone were prepared.
For comparison an acetone solution at an equal concentration of piperonyl butoxide and tetramethrin and an acetone solution at the same concentration of piperonyl butoxide alone were also prepared.

Where [2] appears, read: product 165 mg/sm + chloropyriphos 33 mg/sm.
[3] abbreviates: product 2500 mg/sm + propoxur 500 mg/sm.
Where [4] appears, read: Musca domestica, compound alone 1.25% w/v in acetone, tetramethrin 0, 0.5 μl topical, after 24 hours, read-out: Mortality.

Where two headings read alike, the source gives them in different places.

In the case of `CCOP(=S)(OCC)Oc1nc(Cl)c(Cl)cc1Cl` [Chloropyriphos, chloropyriphos, reference compound], in the series with Blattella germanica (chloropyriphos alone 33 mg/sm), the “Mortalità 1gg” value stood at 32% and the “Mortalità 3gg” value worked out at 48%.

Broadly, the mortality is the percentage killed. For `CCCCCCCCc1cc2c(cc1COCCOCCOCCCC)OCO2` [Ex. 1, 5-[2-(2-butoxyethoxy)-ethoxymethyl]-6-n-octyl-1,3-benzodioxole], in the series on Blattella germanica (setting [2]), the “Mortalità 1gg” value is reported as 62% and the “Mortalità 3gg” value worked out at 85%. For the same compound, in the series on Blattella germanica (setting [3]), the “Mortalità 1gg” value amounted to 48% and the “Mortalità 3gg” value is listed as 60%. The mortality at 1.25 % strength in series [1] (setting [4]) was found to be 0%. The Mortality in series [1] (0.5 μl topical, after 24 hours) came out at 100%. The “synergist activity in respect of the tetramethrin” value in series [1] is recorded as “most active as synergists”.

Regarding `CCCCOCCOCCOCc1cc2c(cc1CCCC)OCO2` [Ex. 2, 5-[2-(2-butoxyethoxy)-ethoxymethyl]-6-n-butyl-1,3-benzodioxole], in series [1] (setting [4]), the mortality at 1.25 % strength was determined as 0%. In addition, the Mortality in series [1] (0.5 μl topical, after 24 hours) is on record as 80%.

For `CCCCCCc1cc2c(cc1COCCOCCOCCCC)OCO2` [Ex. 3, 5-[2-(2-Butoxy-ethoxy)-ethoxymethyl]-6-n-hexyl-1,3-benzodioxole], the “Mortalità 1gg” value in the series with Blattella germanica (setting [2]) was determined as 60%; in the series with Blattella germanica (setting [3]), 44%. In addition, the “Mortalità 3gg” value in the series with Blattella germanica (setting [2]) amounted to 80%; with Blattella germanica (setting [3]) it was 56%. Besides, in series [1] (setting [4]), the mortality at 1.25 % strength is 0%. In addition, the Mortality in series [1] (0.5 μl topical, after 24 hours) was 100%. For the same compound, the “synergist activity in respect of the tetramethrin” value in series [1] is “most active as synergists”.

For the compound `CCCCCCCCCCc1cc2c(cc1COCCOCCOCCCC)OCO2` [Ex. 4, 5-[2-(2-Butoxyethoxy)-ethoxymethyl]-6-n-decyl-1,3-benzodioxole], the mortality at 1.25 % strength in series [1] (setting [4]) came out at 0%. Moreover, the Mortality in series [1] (0.5 μl topical, after 24 hours) amounted to 80%.

Take `CCCCOCCOCCOCc1cc2c(cc1CCC)OCO2` [PBO, 5-[2-(2-butoxyethoxy)-ethoxymethyl]6-propyl-1,3-benzodioxole, reference compound]: in the series on Blattella germanica (setting [2]), the “Mortalità 1gg” value was 45% and the “Mortalità 3gg” value is listed as 65%. For the same compound, in the series with Blattella germanica (setting [3]), the “Mortalità 1gg” value was 35% and the “Mortalità 3gg” value is given as 42%. In series [1] (Musca domestica, topical, 24 h), this compound displayed a mortality at 1.25 % strength of 0%.

`CNC(=O)Oc1ccccc1OC(C)C` [Propoxur, propoxur, reference compound]: in the series with Blattella germanica (propoxur alone 500 mg/sm), the “Mortalità 1gg” value was 20% and the “Mortalità 3gg” value turned out to be 31%.

In series [1] (Musca domestica, topical, 24 h), `CC(C)=CC1C(C(=O)OCN2C(=O)C3=C(CCCC3)C2=O)C1(C)C` (stereo not shown) [tetramethrin, reference compound] yielded a mortality at 0.25 % strength of 20%.

The values are drawn from US9363995B2, “Use of derivative compounds of 1,3-benzodioxole in insecticidal compositions” (ENDURA S.P.A., priority 2012, dated 2016).
